Reference: ChEMBL document CHEMBL1134188, “Evidence for gliotoxin-glutathione conjugate adducts” (Bioorg Med Chem Lett, 2001)

Test: The equilibrium constant pair at a pH of 7.0 and temperature of 25 degree Centigrade
Conditions: pH 7

CN1C(=O)[C@]23CC4=CC=C[C@H](O)[C@H]4N2C(=O)[C@@]1(CO)SS3.N[C@@H](CS)C(=O)O [GLIOTOXIN/CYSTEINE]
Keq: 400 M⁻¹
